# Measured values from patent US4245106A, “Process for the preparation of 1-alkyl-3-aryl-4-pyrazolecarboxylates” (Monsanto Company, priority 1979, dated 1981).
# Experiments:
# Assay type in all cases: in vivo
# Morningglory [1] = test: post-emergent herbicidal activity test
# Procedure: (§1) The post-emergent tests were conducted as follows. The active ingredients are applied in spray form to two or three-week old specimens of various plant species. The spray, a solution or wettable powder suspension containing the appropriate rate of active ingredient to give the desired test rate and a surfactant, is applied to the plants. The treated plants are placed in a greenhouse and unless otherwise noted approximately four weeks later the effects are observed and recorded.
# Smartweed [2] = test: post-emergent herbicidal activity test
# Procedure: as §1
# Lambsquarter [3] = test: post-emergent herbicidal activity test
# Procedure: as §1
# Quackgrass [4] = test: post-emergent herbicidal activity test
# Procedure: as §1
# Johnsongrass [5] = test: post-emergent herbicidal activity test
# Procedure: as §1
# Canada Thistle [6] = test: post-emergent herbicidal activity test
# Procedure: as §1
# Velvetleaf [7] = test: post-emergent herbicidal activity test
# Procedure: as §1
# Nutsedge [8] = test: post-emergent herbicidal activity test
# Procedure: as §1
# Bromus tectorum [9] = test: post-emergent herbicidal activity test
# Procedure: as §1
# Barnyard grass [10] = test: post-emergent herbicidal activity test
# Procedure: as §1
# Cocklebur [11] = test: post-emergent herbicidal activity test
# Procedure: as §1
# Morningglory [12] = test: pre-emergent herbicidal activity test; conditions: *11.2 Kg/Ha; observed approximately 14 days after treatment
# Procedure: (§2) Table II summarizes results of tests conducted to determine the pre-emergent as well as the post-emergent herbicidal activity of the compounds. The pre-emergent test was conducted as follows:
# (§3) A good grade of top soil was placed in aluminum pans and compacted to a depth of three-eighths to one-half inch from the top of the pan. On the top of the soil was placed a predetermined number of seeds or vegetative propagules of various plant species. The soil required to level fill the pans after seeding or adding vegetative propagules was weighed into a pan. A known amount of the active ingredient applied in a solvent or as a wettable powder and the soil were thoroughly mixed, and used as a cover layer for prepared pans. After treatment the pans were moved into a greenhouse bench where they were watered from below as needed to give adequate moisture for germination and growth.
# (§4) A herbicial rating code was used to signify the extent of phytotoxicity of each species. The rating are defined as follows: […]
# Smartweed [13] = test: pre-emergent herbicidal activity test; conditions: *11.2 Kg/Ha; observed approximately 14 days after treatment
# Procedure: as §2, §3, §4
# Lambsquarter [14] = test: pre-emergent herbicidal activity test; conditions: *11.2 Kg/Ha; observed approximately 14 days after treatment
# Procedure: as §2, §3, §4
# Quackgrass [15] = test: pre-emergent herbicidal activity test; conditions: *11.2 Kg/Ha; observed approximately 14 days after treatment
# Procedure: as §2, §3, §4
# Johnsongrass [16] = test: pre-emergent herbicidal activity test; conditions: *11.2 Kg/Ha; observed approximately 14 days after treatment
# Procedure: as §2, §3, §4
# Canada Thistle [17] = test: pre-emergent herbicidal activity test; conditions: *11.2 Kg/Ha; observed approximately 14 days after treatment
# Procedure: as §2, §3, §4
# Velvetleaf [18] = test: pre-emergent herbicidal activity test; conditions: *11.2 Kg/Ha; observed approximately 14 days after treatment
# Procedure: as §2, §3, §4
# Nutsedge [19] = test: pre-emergent herbicidal activity test; conditions: *11.2 Kg/Ha; observed approximately 14 days after treatment
# Procedure: as §2, §3, §4
# Bromus tectorum [20] = test: pre-emergent herbicidal activity test; conditions: *11.2 Kg/Ha; observed approximately 14 days after treatment
# Procedure: as §2, §3, §4
# Barnyard grass [21] = test: pre-emergent herbicidal activity test; conditions: *11.2 Kg/Ha; observed approximately 14 days after treatment
# Procedure: as §2, §3, §4
# Cocklebur [22] = test: pre-emergent herbicidal activity test; conditions: *11.2 Kg/Ha; observed approximately 14 days after treatment
# Procedure: as §2, §3, §4
# [23] = *11.2 Kg/Ha, observed approximately 14 days after treatment
# [24] = 11.2 Kg/Ha, approximately four weeks later
# Note: ranges in brackets are in %.
Compound,"Post-Emergent herbicidal rating, D Morningglory (Morningglory [1]; [23])","Post-Emergent herbicidal rating, F Smartweed (Smartweed [2]; [23])","Post-Emergent herbicidal rating, E Lambsquarter (Lambsquarter [3]; [23])","Post-Emergent herbicidal rating, H Quackgrass (Quackgrass [4]; [23])","Post-Emergent herbicidal rating, I Johnsongrass (Johnsongrass [5]; [23])","Post-Emergent herbicidal rating, A Canada Thistle (Canada Thistle [6]; [23])","Post-Emergent herbicidal rating, C Velvetleaf (Velvetleaf [7]; [23])","Post-Emergent herbicidal rating, G Nutsedge (Nutsedge [8]; [23])","Post-Emergent herbicidal rating, J Bromus tectorum (Bromus tectorum [9]; [23])","Pre-Emergent herbicidal rating, D Morningglory (Morningglory [12])","Pre-Emergent herbicidal rating, F Smartweed (Smartweed [13])","Pre-Emergent herbicidal rating, E Lambsquarter (Lambsquarter [14])","Pre-Emergent herbicidal rating, H Quackgrass (Quackgrass [15])","Pre-Emergent herbicidal rating, I Johnsongrass (Johnsongrass [16])","Pre-Emergent herbicidal rating, A Canada Thistle (Canada Thistle [17])","Pre-Emergent herbicidal rating, C Velvetleaf (Velvetleaf [18])","Pre-Emergent herbicidal rating, G Nutsedge (Nutsedge [19])","Pre-Emergent herbicidal rating, J Bromus tectorum (Bromus tectorum [20])","Pre-Emergent herbicidal rating, K Barnyard grass (Barnyard grass [21])","Pre-Emergent herbicidal rating, B Cocklebur (Cocklebur [22])",other results
Cn1cc(C(=O)OCCOc2ccccc2)c(-c2cccc(C(F)(F)F)c2)n1 [Example 22],0 (0-24),0 (0-24),0 (0-24),0 (0-24),0 (0-24),1 (25-49),0 (0-24),0 (0-24),0 (0-24),1 (25-49),0 (0-24),3 (75-100),0 (0-24),0 (0-24),3 (75-100),0 (0-24),0 (0-24),0 (0-24),0 (0-24),0 (0-24),"Post-Emergent herbicidal rating, K Barnyard grass (Barnyard grass [10]; [23]): 0 (0-24); Post-Emergent herbicidal rating, B Cocklebur (Cocklebur [11]; [23]): 0 (0-24)"
Cn1cc(C(=O)OCC2CC(F)(F)C2(F)F)c(-c2cccc(C(F)(F)F)c2)n1 (stereo not drawn) [Example 18],2 (50-74),1 (25-49),2 (50-74),1 (25-49),1 (25-49),1 (25-49),2 (50-74),0 (0-24),1 (25-49),1 (25-49),2 (50-74),2 (50-74),0 (0-24),0 (0-24),1 (25-49),1 (25-49),0 (0-24),1 (25-49),1 (25-49),0 (0-24),"Post-Emergent herbicidal rating, K Barnyard grass (Barnyard grass [10]; [23]): 1 (25-49); Post-Emergent herbicidal rating, B Cocklebur (Cocklebur [11]; [23]): 1 (25-49)"
CCOC(=O)c1cn(C)nc1-c1ccc(OC)cc1 [Example 31],–,–,–,–,–,–,–,–,–,0 (0-24),0 (0-24),0 (0-24),0 (0-24),0 (0-24),0 (0-24),0 (0-24),0 (0-24),0 (0-24),0 (0-24),0 (0-24),"Post-Emergent herbicidal rating, D Morningglory (Morningglory [1]; [24]): 1 (25-49); Post-Emergent herbicidal rating, F Smartweed (Smartweed [2]; [24]): 4 (100); Post-Emergent herbicidal rating, E Lambsquarter (Lambsquarter [3]; [24]): 4 (100); Post-Emergent herbicidal rating, H Quackgrass (Quackgrass [4]; [24]): 0 (0-24); Post-Emergent herbicidal rating, I Johnsongrass (Johnsongrass [5]; [24]): 0 (0-24); Post-Emergent herbicidal rating, A Canada Thistle (Canada Thistle [6]; [24]): 0 (0-24); Post-Emergent herbicidal rating, C Velvetleaf (Velvetleaf [7]; [24]): 1 (25-49); Post-Emergent herbicidal rating, G Nutsedge (Nutsedge [8]; [24]): 0 (0-24); Post-Emergent herbicidal rating, J Bromus tectorum (Bromus tectorum [9]; [24]): 0 (0-24); Post-Emergent herbicidal rating, K Barnyard grass (Barnyard grass [10]; [24]): 1 (25-49); Post-Emergent herbicidal rating, B Cocklebur (Cocklebur [11]; [24]): 0 (0-24)"
